Data as given in paper PMC5374710, “Discovery of the first dual GSK3β inhibitor/Nrf2 inducer. A new multitarget therapeutic strategy for Alzheimer’s disease” (Scientific Reports, 2017).

Columns and labels:
NOX = NOX activity assay in LPS-stimulated glial cultures (lucigenin); type: cell-based, rat; conditions: 10 to 60 μM, 4 h stimulation with LPS 1 μg/mL, p < 0.01
Procedure: TNFα is considered one of the most important pro-inflammatory cytokines. […] The production of TNFα induced by LPS was reduced by 33% at 10 μM and by 50% at 30 μM. […] To further confirm the anti-inflammatory potential of compound 5c we measured the expression of thre NOX2 enzyme, since this isoform has been widely described as being specific tomicroglial cells. As depicted in Fig. 6F, LPS (1 μg/mL) stimulation of primary glial cultures during 24 h increased the expression of NOX2 by 65.3% (p < 0.01) compared to basal conditions.
Figure 6 Nitrites (A), TNFα (B), iNOS (C) and NOX activity (E) blockade (D) and NOX2 production (F) by 5c in primary glial cultures stimulated with LPS (1 μg/mL), HO-1 expression induced by this compound after 24 h. […] NOX activity was measured after 4 h co-treatment with LPS and compound 5c. […]
Cells were pre-incubated with increasing concentrations of the compound. […] Then, treatments were removed and NADPH oxidase activity was assessed by measuring O2^− production in the presence of the substrate, NADPH (100 μM) as lucigenin-enhanced chemiluminiscence (5 μM lucigenin). No enzymatic activity was detected in the absence of NADPH. Luminescence was recorded 29 times every 1.8 seconds for each well in a luminometer, and NADPH oxidase activity was expressed as relative light units (RLU)/min normalized to basal value. […]

Nrf2 = assay: Luciferase activity in AREc32 cells after scramble or GSK3β siRNA; type: cell-based, human; conditions: 10 μM, 24 h
Procedure: To further evaluate the potential relationship between GSK3β inhibition and the Nrf2 induction properties we used two different approaches. […] Cells were treated with compound 5m at increasing concentrations alone or in presence of Li (10 mM) during 24 h and thereafter, luciferase activity was evaluated. […] Secondly, to corroborate the independence of the Nrf2 induction properties of our derivatives from their GSK3β inhibitory properties, we used GSK3β knock down experimental conditions using siRNA. […] After knockdown of GSK3β, AREc32 cells were incubated with compound 5m (10 μM) during 24 h (Fig. 4B). Subsequently, luciferase activity and HO-1 expression were analyzed. […] Similar results were obtained when HO-1 expression was analyzed (Fig. 4D), compound 5m increased HO-1 expression 3.9 times after scramble treatment and 3.5 times after knockdown of GSK3β showing no statistical differences between both conditions. […]
Figure 4 Nrf2 induction properties are independent of the GSK3β inhibitory activity. […] (D) HO-1 expression induced by compound 5m (10 μM) measured at the same experimental conditions used previously. Values are expressed as mean ± SEM of three independent experiments in duplicate. ^###p < 0.001; ^##p < 0.01; ^#p < 0.05 compared to the correspondent basal conditions. […]

SMILES	Reduction of NOX activity (NOX)	Luciferase activity fold increase compared to basal conditions (Nrf2; GSK3β silenced (siGSK3β))	Luciferase activity fold increase compared to basal conditions (Nrf2; cells previously treated with scramble control siRNA)
COc1cccc(C2C(C#N)=C(N)Oc3n[nH]c(C)c32)c1 (stereo not drawn) [Compound 5c, 6-Amino-4-(3-methoxyphenyl)-3-methyl-2,4-dihydropyrano[2,3-c]pyrazole-5-carbonitrile]	significantly reduce		
Cc1[nH]nc2c1C(c1ccc(Br)cc1)C(C#N)=C(N)O2 (stereo not drawn) [Compound 5m, 6-Amino-4-(4-bromophenyl)-3-methyl-2,4-dihydropyrano[2,3-c]pyrazole-5-carbonitrile]		2.8 fold	2.2 fold
